# According to patent publication US7157432B2, “Tetraphenylbacteriochlorin derivatives and compositions containing the same” (San-Ei Gen F.F.I., Inc., priority 2000, dated 2007):
# Tested on: HeLa cells
# Assay: Phototoxicity test (MTT assay, viability of HeLa cells after irradiation)
# Format: cell-based
# Details: test compound 5 or 10 μM for two hours, 500 W halogen lamp with filter cutting off light shorter than 500 nm for 8 minutes, MTT after 24 hours
# Method: Each of Compounds 1 to 16 was evaluated about its cytotoxicity by viability of HeLa cells using MTT assay (Carmichal, J., W. G. DeGraff, A. F. Gazdar, J. D. Minna and J. B. Mitchell, Cancer Res., 1987, 47, 936–942). HeLa cells (1×10^4 cells/well) were incubated in Dulbecco's modified Eagle's medium (DMEM) containing 10% fetal bovine serum (FBS) on a 96-well plate in 5% CO2 at 37° C. for 24 hours. After washing with phosphate buffered saline (PBS), the cells were incubated in DMEM without serum in the presence of each of the compounds to be tested (5 or 10 μM) for two hours. The cells were washed with PBS and irradiated with a 500 W halogen lamp equipped with a filter cutting off the light shorter than 500 nm wave length for 8 minutes. After 24 hours' incubation, the viability was measured by the MTT assay. HeLa cells without test compound were used as a control. […] The survival ratio of the cells is calculated by the following formula: Cell survival ratio (%)=(OD540 in presence of test compound with irradiation/OD540 in presence of test compound without irradiation)×100. A cell survival ratio of 100% means the absence of cytotoxicity.
row,SMILES,"cytotoxicity when irradiated with light (cell survival ratio, FIG. 2)"
1,"OC[C@H]1O[C@@H](Oc2cccc(-c3c4nc(c(-c5cccc(O[C@@H]6O[C@H](CO)[C@@H](O)[C@H](O)[C@H]6O)c5)c5ccc([nH]5)c(-c5cccc(O[C@@H]6O[C@H](CO)[C@@H](O)[C@H](O)[C@H]6O)c5)c5nc(c(-c6cccc(O[C@@H]7O[C@H](CO)[C@@H](O)[C@H](O)[C@H]7O)c6)c6ccc3[nH]6)CC5)CC4)c2)[C@H](O)[C@@H](O)[C@@H]1O [Compound 10, 5,10,15,20-tetrakis[3-(β-D-glucopyranosyloxy)phenyl]-bacteriochlorin]",exhibited cytotoxicity
2,"O[C@@H]1[C@H](Oc2cccc(-c3c4nc(c(-c5cccc(O[C@@H]6OC[C@@H](O)[C@@H](O)[C@@H]6O)c5)c5ccc([nH]5)c(-c5cccc(O[C@@H]6OC[C@@H](O)[C@@H](O)[C@@H]6O)c5)c5nc(c(-c6cccc(O[C@@H]7OC[C@@H](O)[C@@H](O)[C@@H]7O)c6)c6ccc3[nH]6)CC5)CC4)c2)OC[C@@H](O)[C@H]1O [Compound 14, 5,10,15,20-tetrakis[3-(β-D-arabinopyranosyloxy)phenyl]-bacteriochlorin]",exhibited cytotoxicity
3,"O[C@@H]1[C@@H](O)[C@H](Oc2cccc(-c3c4nc(c(-c5cccc(O[C@@H]6OC[C@@H](O)[C@H](O)[C@H]6O)c5)c5ccc([nH]5)c(-c5cccc(O[C@@H]6OC[C@@H](O)[C@H](O)[C@H]6O)c5)c5nc(c(-c6cccc(O[C@@H]7OC[C@@H](O)[C@H](O)[C@H]7O)c6)c6ccc3[nH]6)CC5)CC4)c2)OC[C@H]1O [Compound 16, 5,10,15,20-tetrakis[3-(β-D-xylopyranosyloxy)phenyl]bacteriochlorin]",exhibited cytotoxicity

# Tested on: not listed separately
# Assay: UV absorption in DMSO at 20° C.
# Format: physicochemical
# Details: FIG. 1
# Description: As clearly shown in FIG. 1, the compounds of the present invention have a strong UV absorption peak around 740 nm. Compounds 3 to 8 and 11 to 16 show an UV absorption pattern similar to that of tetraphenylbacteriochlorin and also have a strong UV absorption peak around 740 nm.
row,SMILES,strong UV absorption peak
1,"CC(=O)OC[C@H]1O[C@@H](Oc2ccc(-c3c4nc(c(-c5ccc(O[C@@H]6O[C@H](COC(C)=O)[C@@H](OC(C)=O)[C@H](OC(C)=O)[C@H]6OC(C)=O)cc5)c5ccc([nH]5)c(-c5ccc(O[C@@H]6O[C@H](COC(C)=O)[C@@H](OC(C)=O)[C@H](OC(C)=O)[C@H]6OC(C)=O)cc5)c5nc(c(-c6ccc(O[C@@H]7O[C@H](COC(C)=O)[C@@H](OC(C)=O)[C@H](OC(C)=O)[C@H]7OC(C)=O)cc6)c6ccc3[nH]6)CC5)CC4)cc2)[C@H](OC(C)=O)[C@@H](OC(C)=O)[C@@H]1OC(C)=O [Compound 1, 5,10,15,20-tetrakis[4-(2′,3′,4′,6′-tetra-O-acetyl-β-D-glucopyranosyloxy)phenyl]bacteriochlorin]",around 740 nm
2,"CC(=O)OC[C@H]1O[C@@H](Oc2cccc(-c3c4nc(c(-c5cccc(O[C@@H]6O[C@H](COC(C)=O)[C@@H](OC(C)=O)[C@H](OC(C)=O)[C@H]6OC(C)=O)c5)c5ccc([nH]5)c(-c5cccc(O[C@@H]6O[C@H](COC(C)=O)[C@@H](OC(C)=O)[C@H](OC(C)=O)[C@H]6OC(C)=O)c5)c5nc(c(-c6cccc(O[C@@H]7O[C@H](COC(C)=O)[C@@H](OC(C)=O)[C@H](OC(C)=O)[C@H]7OC(C)=O)c6)c6ccc3[nH]6)CC5)CC4)c2)[C@H](OC(C)=O)[C@@H](OC(C)=O)[C@@H]1OC(C)=O [Compound 2, 5,10,15,20-tetrakis[3-(2′,3′,4′,6′-tetra-O-acetyl-β-D-glucopyranosyloxy)phenyl]bacteriochlorin]",around 740 nm
3,"OC[C@H]1O[C@@H](Oc2ccc(-c3c4nc(c(-c5ccc(O[C@@H]6O[C@H](CO)[C@@H](O)[C@H](O)[C@H]6O)cc5)c5ccc([nH]5)c(-c5ccc(O[C@@H]6O[C@H](CO)[C@@H](O)[C@H](O)[C@H]6O)cc5)c5nc(c(-c6ccc(O[C@@H]7O[C@H](CO)[C@@H](O)[C@H](O)[C@H]7O)cc6)c6ccc3[nH]6)CC5)CC4)cc2)[C@H](O)[C@@H](O)[C@@H]1O [Compound 9, 5,10,15,20-tetrakis[4-(β-D-glucopyranosyloxy)phenyl]-bacteriochlorin]",around 740 nm
4,"OC[C@H]1O[C@@H](Oc2cccc(-c3c4nc(c(-c5cccc(O[C@@H]6O[C@H](CO)[C@@H](O)[C@H](O)[C@H]6O)c5)c5ccc([nH]5)c(-c5cccc(O[C@@H]6O[C@H](CO)[C@@H](O)[C@H](O)[C@H]6O)c5)c5nc(c(-c6cccc(O[C@@H]7O[C@H](CO)[C@@H](O)[C@H](O)[C@H]7O)c6)c6ccc3[nH]6)CC5)CC4)c2)[C@H](O)[C@@H](O)[C@@H]1O [Compound 10, 5,10,15,20-tetrakis[3-(β-D-glucopyranosyloxy)phenyl]-bacteriochlorin]",around 740 nm
